Patent EP0393512A1, “New 1,3-dioxolane-2-yl derivatives of 2-picolylamine” (J. URIACH & CIA. S.A., priority 1989, dated 1990)
Like-named read-outs stand apart in the source and are kept apart here.

Columns and labels:
[1] = system: hypotension induced by PAF; assay: Inhibition of the hypotensive effect induced by PAF in normotense rats; assay type: in vivo, Sprage Dawley rats; settings: Rattus norvegicus, iv; anesthetized male rats; compound given through the femoral vein 3 min before PAF (0.5 mcg/Kg, i.v.); average arterial pressure; read-out: IC₅₀
Protocol: Inhibition of the hypotensive effect induced by PAF in normotense rats. Male Sprage Dawley rats, of 180-220 g of weight, anesthetized with sodium pentobarbital (50 mg/Kg, i.p. 1 mL/100 g) have been used. In order to measure the average arterial pressure, a polyethylene catheter is introduced into the carotid artery. The arterial pressure is recorded with the help of a transducer connected with a R611 Beckman polygraph. The tested compounds are administered through the femoral vein 3 min before the injection of PAF (0.5 mcg/Kg, i.v.).

[2] = system: platelet aggregation induced by PAF; assay: Inhibition of platelet aggregation induced by PAF (rabbit platelet rich plasma, Born nephelometric technique); assay type: cell-based, New Zealand albino rabbits; settings: concentration needed to inhibit platelet aggregation by 50%, PAF (C₁₈) 16 nM final, read-out: IC₅₀
Protocol: Inhibition of platelet aggregation induced by PAF.
The blood is obtained by cardiac puncture of male New Zealand albino rabbits (between 2 and 2.5 Kg of weight) and coagulation is prevented by adding 1 part of 3.16% sodium citrate dihydrate in 9 parts of blood. The platelet rich plasma (PRP) is prepared by blood centrifugation at 250xg for 10 min. at 4°C and it is diluted with platelet poor plasma (PPP) by additional centrifugation at 3000xg for 10 min. The amount of platelets is adjusted to […]. The platelet aggregation induced by PAF (C₁₈; prepared in our laboratory) (16 nM, final) is determined by the Born nephelometric technique (J. Physiol., 1962, 162 67) using a aggregometer Chrono-log 500.
The activities of the inhibitors are expressed as IC₅₀, that is to say the concentration of the drug needed to inhibit the platelet aggregation by 50%.

Work on `CCCCCCCCCCCCCCOCC1COC(COC(=O)N(Cc2cccc[n+]2CC)C(C)=O)O1.[I-]` (centres unmarked) [Compound 17, 2-[N-Acetyl-N-[((5-tetradecyloxymethyl-1,3-dioxolane-2-yl)methoxy)carbonyl]aminomethyl]-1-ethylpyridinium iodide] yielded an ED50 [1] of 0.2 mg/kg and an IC50 ([2]; Oryctolagus cuniculus) of 150 nM.
With `CCCCCCCCCCCCCCCCCNC(=O)OCC1COC(COC(=O)N(Cc2ccccn2)C(C)=O)O1` (centres unmarked) [Compound 22, 2-[N-Acetyl-N-[((5-heptadecylcarbamoyloxymethyl-1,3-dioxolane-2-yl)methoxy)carbonyl]aminomethyl] pyridine] the ED50 [1] was under 0.05 mg/kg and the IC50 ([2]; Oryctolagus cuniculus) was under 50 nM.
For `CCCCCCCCCCCCCCCCOCC1COC(COC(=O)N(Cc2cccc[n+]2C)C(C)=O)O1.[I-]` (centres unmarked) [Compound 7, 2-[N-Acetyl-N-[((5-hexadecyloxymethyl-1,3-dioxolane-2-yl)methoxy)carbonyl]aminomethyl]-1-methylpyridinium iodide], the ED50 [1] was 0.32 mg/kg and the IC50 ([2]; Oryctolagus cuniculus) was 1000 nM.
`CCCCCCCCCCCCCCCCOCC1COC(COC(=O)N(Cc2cccc[n+]2CC)C(=O)OCC)O1.[I-]` (centres unmarked) [Compound 11, 2-[N-Ethoxycarbonyl-N-[((5-hexadecyloxymethyl-1,3-dioxolane-2-yl)methoxy)carbonyl]aminomethyl]-1-ethylpyridinium iodide] showed an ED50 [1] of 0.095 mg/kg and an IC50 ([2]; Oryctolagus cuniculus) of 140 nM.
For `CCCCCCCCCCCCCCCCOCC1COC(COC(=O)N(Cc2cccc[n+]2CC)C(C)=O)O1.[Cl-]` (centres unmarked) [Compound 9, 2-[N-Acetyl-N-[((5-hexadecyloxymethyl-1,3-dioxolane-2-yl)methoxy)carbonyl]aminomethyl]-1-ethylpyridinium chloride], the ED50 [1] was under 0.05 mg/kg and the IC50 [2] was under 50 nM.
Work on `CCCCCCCCCCCCCCCNC(=O)OCC1COC(COC(=O)N(Cc2cccc[n+]2CC)C(C)=O)O1.[I-]` (centres unmarked) [Compound 20, 2-[N-Acetyl-N-[((5-pentadecylcarbamoyloxymethyl-1,3-dioxolane-2-yl)methoxy)carbonyl]aminomethyl]-1-ethylpyridinium iodide] yielded an ED50 [1] of 0.093 mg/kg and an IC50 ([2]; Oryctolagus cuniculus) of under 50 nM.
With `CCCCCCCCCCCCCCCCOCC1COC(COC(=O)N(Cc2ccccn2)C(C)=O)O1.Cl` (centres unmarked) [Compound 6, 2-[N-Acetyl-N-[((5-hexadecyloxymethyl-1,3-dioxolane-2-yl)methoxy)carbonyl]aminomethyl] pyridine hydrochloride] the ED50 [1] was over 5 mg/kg and the IC50 ([2]; Oryctolagus cuniculus) was 4000 nM.
`CCCCCCCCCCCCCCCCCC1COC(COC(=O)N(Cc2cccc[n+]2CC)C(C)=O)O1.[I-]` (centres unmarked) [Compound 3, 2-[N-Acetyl-N-[((5-heptadecyl-1,3-dioxolan-2-yl)methoxy)carbonyl]aminomethyl]-1-ethylpyridinium iodide] gave an ED50 [1] of 0.074 mg/kg and an IC50 ([2]; Oryctolagus cuniculus) of under 50 nM.
For `CCCCCCCCCCCCCCCCCCOCC1COC(COC(=O)N(Cc2cccc[n+]2CC)C(C)=O)O1.[I-]` (centres unmarked) [Compound 14, 2-[N-Acetyl-N-[((5-octadecyloxymethyl-1,3-dioxolane-2-yl)methoxy)carbonyl]aminomethyl]-1-ethylpyridinium iodide], the ED50 [1] was under 0.05 mg/kg and the IC50 ([2]; Oryctolagus cuniculus) was 110 nM.
In the case of `CCCCCCCCCCCCCCCCOCC1COC(COC(=O)N(Cc2cccc[n+]2CC)C(C)=O)O1.[I-]` (centres unmarked) [Compound 8, 2-[N-Acetyl-N-[((5-hexadecyloxymethyl-1,3-dioxolane-2-yl)methoxy)carbonyl]aminomethyl]-1-ethylpyridinium iodide], the ED50 [1] is reported as under 0.05 mg/kg and the IC50 ([2]; Oryctolagus cuniculus) is reported as under 50 nM.
